The target of one assay is CDK1/cyclin B. The assay is described as follows: CDK1/cyclin B kinase assay. Format: biochemical, starfish (Marthasterias glacialis). As to conditions: 15 μM ATP, 30° C., histone H1 substrate. Here is the method: Homogenization buffers: 60 mM β-glycerophosphate, 15 mM p-nitrophenyl phosphate, 25 mM Mops (pH 7.2), 15 mM EGTA, 15 mM MgCl2, 1 mM DTT, 1 mM sodium vanadate, 1 mM NaF, 1 mM phenyl phosphate, 10 μg leupeptin/ml, 10 μg aprotinin/ml, 10 μg soybean trypsin inhibitor/ml and 100 μM benzamidine.
(§1) Buffer C: 60 mM β-glycerophosphate, 15 mM p-nitrophenyl phosphate, 25 mM Mops (pH 7.2), 5 mM EGTA, 15 mM MgCl2, 1 mM DTT, 1 mM sodium vanadate, 1 mM phenyl phosphate, 10 μg leupeptin/ml, 10 μg aprotinin/ml and 100 μM benzamidine.
(§2) Controls were performed with appropriate dilutions of dimethyl sulfoxide.
(§3) ATP (3000 Ci/mmol; 10 mCi/ml) in a final volume of 30 μl. After incubation for 30 minutes at 30° C., aliquotes of 25 μl of the supernatant were spotted onto Whatman P81 phosphocellulose paper filters and, 20 seconds later, the filters were washed five times (for at least five minutes each time) in a solution of 10 ml of phosphoric acid/liter of water. The wet filters were subjected to counting in the presence of an ACS scintillation fluid from Amersham. CDK2/cyclin A (human, recombinant, expressed in insect cells) was assayed as described for CDK1/cyclin B. CDK5/p25 was reconstituted by mixing equal amounts of recombinant mammalian CDK5 and p25 expressed in E. coli as a GST (glutathione-S-transferase) fusion protein and purified by affinity chromatography on glutathione-agarose (p25 is a truncated version of p35, the 35 kDa CDK5 activator). […] DYRK1A (human, recombinant, expressed in E. coli as a GST fusion protein) was purified on glutathione-agarose, assayed as described for CDK1/cyclin B with myelin basic protein (1 mg/ml) as substrate.

In a further assay the target is CDK5/p25 (Homo sapiens, UniProt Q00535). Put plainly: CDK5/p25 kinase assay. Format: biochemical, mammalian. The following applies: 15 μM ATP, 30° C., histone H1 substrate. Here is the method: as §1, §2, §3
CDK5/p25, sequence (Q00535 whole entry, species assumed): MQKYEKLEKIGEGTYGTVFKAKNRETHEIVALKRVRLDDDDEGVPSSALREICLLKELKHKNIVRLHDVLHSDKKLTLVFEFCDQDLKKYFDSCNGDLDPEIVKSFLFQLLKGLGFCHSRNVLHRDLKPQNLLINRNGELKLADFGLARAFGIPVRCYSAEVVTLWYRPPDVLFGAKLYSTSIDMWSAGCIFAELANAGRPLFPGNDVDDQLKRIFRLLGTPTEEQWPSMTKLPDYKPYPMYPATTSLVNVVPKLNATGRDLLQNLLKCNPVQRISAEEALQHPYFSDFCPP
CDK5/p25, sequence (Q15078 99-307 partner limits assumed, species assumed): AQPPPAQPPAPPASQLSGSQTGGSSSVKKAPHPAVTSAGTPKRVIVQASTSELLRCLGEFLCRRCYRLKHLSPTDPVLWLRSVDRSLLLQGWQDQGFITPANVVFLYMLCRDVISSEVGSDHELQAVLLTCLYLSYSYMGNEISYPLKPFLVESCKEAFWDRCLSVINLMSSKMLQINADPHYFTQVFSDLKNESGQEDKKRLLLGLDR
Another assay concerns the target T1, CDK2/cyclin A (Homo sapiens, UniProt P24941).
T1 construct: host or cells: insect cells
The assay is described as follows: CDK2/cyclin A kinase assay. Format: biochemical. As to conditions: 15 μM ATP, 30° C., histone H1 substrate. The procedure: as §1, §2, §3

The target of the next assay is T2, CDK9/cyclin T (Homo sapiens, UniProt P50750).
T2 construct: host or cells: insect cells
T2 sequence (P50750 whole entry): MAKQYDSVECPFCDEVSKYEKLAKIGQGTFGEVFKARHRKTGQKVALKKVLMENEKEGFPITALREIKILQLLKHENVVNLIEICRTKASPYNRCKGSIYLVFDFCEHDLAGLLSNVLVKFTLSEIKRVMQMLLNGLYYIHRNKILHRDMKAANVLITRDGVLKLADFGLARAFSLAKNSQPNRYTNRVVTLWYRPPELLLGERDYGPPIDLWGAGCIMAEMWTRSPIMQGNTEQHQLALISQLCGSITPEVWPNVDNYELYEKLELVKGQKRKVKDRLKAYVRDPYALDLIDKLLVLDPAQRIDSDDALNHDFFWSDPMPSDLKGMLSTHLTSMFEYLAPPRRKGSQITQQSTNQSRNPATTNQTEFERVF
T2 sequence (O60563 whole entry partner): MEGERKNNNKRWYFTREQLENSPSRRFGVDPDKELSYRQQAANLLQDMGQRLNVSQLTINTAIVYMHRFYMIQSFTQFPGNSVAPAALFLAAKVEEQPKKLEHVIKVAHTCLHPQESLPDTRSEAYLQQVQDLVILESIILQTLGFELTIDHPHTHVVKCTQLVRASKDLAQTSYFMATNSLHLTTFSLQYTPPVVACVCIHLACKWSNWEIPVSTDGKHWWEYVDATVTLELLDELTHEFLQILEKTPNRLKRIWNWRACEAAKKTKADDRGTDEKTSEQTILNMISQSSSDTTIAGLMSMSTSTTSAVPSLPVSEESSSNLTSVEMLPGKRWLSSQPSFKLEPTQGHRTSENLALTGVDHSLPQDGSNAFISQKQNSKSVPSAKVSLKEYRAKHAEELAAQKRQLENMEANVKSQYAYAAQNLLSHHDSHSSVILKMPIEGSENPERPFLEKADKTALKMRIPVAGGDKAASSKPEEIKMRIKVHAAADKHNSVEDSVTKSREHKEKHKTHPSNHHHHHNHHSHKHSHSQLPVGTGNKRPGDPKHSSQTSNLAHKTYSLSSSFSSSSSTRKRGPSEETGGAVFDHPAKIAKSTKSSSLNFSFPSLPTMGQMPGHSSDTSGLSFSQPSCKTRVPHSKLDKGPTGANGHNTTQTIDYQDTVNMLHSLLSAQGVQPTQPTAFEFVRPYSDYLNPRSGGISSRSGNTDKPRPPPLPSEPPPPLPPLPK
Put plainly: CDK9/cyclin T kinase assay. Format: biochemical. As to conditions: 15 μM ATP, 30° C., pRB fragment substrate.

Another assay addresses GSK-3α/β. Put plainly: GSK-3α/β kinase assay. The assay is classed as biochemical, pig. The following applies: 15 μM ATP, 30° C., buffer A, GS-1 substrate.
The target in a further assay is CK1δ/ε. The assay is described as follows: CK1δ/ε kinase assay. As to conditions: 15 μM ATP, 30° C., CK1-specific peptide substrate. Format: biochemical, pig. Here is the method:
(§4) The blank values were subtracted and the activities calculated as μmoles of phosphate incorporated per 10 minutes of incubation. […] Controls were performed with appropriate dilutions of dimethyl sulfoxide.
as §3

The target in another assay is DYRK1A (Homo sapiens, UniProt Q13627). The assay is described as follows: DYRK1A kinase assay. The assay is classed as biochemical. The following applies: 15 μM ATP, 30° C., myelin basic protein substrate. Here is the method:
as §4, §3

Assay [1] deals with SH-SY5Y human neuroblastoma cells. The assay is described as follows: SH-SY5Y cell viability (MTS reduction). The following applies: Homo sapiens; SH-SY5Y cell line, cell viability by MTS. The assay is classed as cell-based. Here is the method:
A Cell Titer 96® kit containing the MTS reagent was purchased from Promega (Madison, Wis., USA). The protease inhibitor cocktail came from Roche and the fetal calf serum (FCS) came from Invitrogen. The reagents not listed came from Sigma, unless otherwise indicated.
The SH-SY5Y human neuroblastoma cell line was grown in a DMEM medium with L-glutamine from Invitrogen (Cergy Pontoise, France), antibiotics and 10% by volume of FCS from Invitrogen. The general culture conditions were a 5% CO2 atmosphere and a temperature of 37° C. The culture plates and other disposable plastic tools were supplied by Corning (Corning, N.Y., USA). The treatments with the compounds of the invention were carried out on cultures in exponential growth over time, and indicated concentrations. The control experiments were carried out also using suitable dilutions of DMSO.
The cell viability was determined by measuring the reduction of 3-(4,5-dimethylthiazol-2-yl)-5-(3-carboxymethoxyphenyl)-2-(4-sulfophenyl)-2H-tetrazolium (MTS).
(Tetrazolium dyes change colour on reduction, which living cells bring about.)

Counter-ions that a name gives are not always drawn.

The term IC50 denotes the point on the concentration scale where inhibition reaches its midpoint. Low readings indicate greater potency in that assay, high ones weaker potency in that assay. Turning to `CC(C)c1cnn2c(NCc3ccc(-c4ccccn4)cc3)nc(N[C@H](CO)[C@@H](C)O)nc12` (stereo in doubt) [Compound 12, (2R,3R)-2-(1,3-dihydroxybut-2-ylamino)-8-isopropyl-4-[4-(pyridin-2-yl)benzylamino]pyrazolo[1,5-a]-1,3,5-triazine], the IC50 stood at 29 nM on CDK1/cyclin B; 29 nM against CDK5/p25; 22 nM at CDK2/cyclin A; 60 nM against CDK9/cyclin T; 3000 nM against GSK-3α/β; 200 nM at CK1δ/ε. The same molecule showed a half-maximal inhibitory concentration (IC50) at DYRK1A of 470 nM.
Turning to `CC(C)c1cnn2c(NCc3ccc(-c4ccccn4)cc3)nc(N[C@@H](CO)[C@H](C)O)nc12` (stereo in doubt) [Compound 14, (2S,3S)-2-(1,3-dihydroxybut-2-ylamino)-8-isopropyl-4-[4-(pyridin-2-yl)benzylamino]pyrazolo[1,5-a]-1,3,5-triazine], the IC50 against CDK1/cyclin B amounted to 42 nM; on CDK5/p25, 44 nM; at CDK2/cyclin A it was 42 nM; on CDK9/cyclin T it was 53 nM; against GSK-3α/β, 2500 nM; against CK1δ/ε, 120 nM. Further, inhibition on DYRK1A was half-maximal at 580 nM (IC50).
Consider `CC(C)c1cnn2c(NCc3ccc(-c4ccsc4)cc3)nc(N[C@H](CO)[C@@H](C)O)nc12` (stereo in doubt) [Compound 16, (2R,3R)-2-(1,3-dihydroxybut-2-ylamino)-8-isopropyl-4-[4-(thiophen-3-yl)benzylamino]pyrazolo[1,5-a]-1,3,5-triazine], for which the half-inhibitory concentration (IC50) against CDK1/cyclin B was determined as 59 nM; against CDK5/p25, 50 nM; against CDK2/cyclin A, 34 nM; against CDK9/cyclin T it was 91 nM; at GSK-3α/β, 4200 nM; against CK1δ/ε it was 190 nM. The IC50 against DYRK1A was determined as 1800 nM.
As for `CC(C)c1cnn2c(NCc3ccc(-c4ccccn4)cc3)nc(NC[C@H](O)CO)nc12` [Compound 9, Fumarate salt of (S)-2-(1,2-dihydroxypropan-3-ylamino)-8-isopropyl-4-[4-(pyridin-2-yl)benzylamino]pyrazolo[1,5-a]-1,3,5-triazine], the 50% inhibitory concentration (IC50) is 19 nM on CDK1/cyclin B; 14 nM at CDK5/p25; 12 nM against CDK2/cyclin A; 38 nM at CDK9/cyclin T; 1800 nM on GSK-3α/β; 61 nM against CK1δ/ε. For the same molecule, the IC50 at DYRK1A was 260 nM.
`CC(C)c1cnn2c(NCc3ccc(-c4ccccn4)cc3)nc(N[C@H](CO)[C@@H](C)O)nc12` [Compound 13, Fumarate salt of (2R,3R)-2-(1,3-dihydroxybut-2-ylamino)-8-isopropyl-4-[4-(pyridin-2-yl)benzylamino]pyrazolo[1,5-a]-1,3,5-triazine]: the 50% inhibitory concentration (IC50) on CDK1/cyclin B was 31 nM; against CDK5/p25 it was 21 nM; against CDK2/cyclin A, 20 nM; against CDK9/cyclin T, 49 nM; on GSK-3α/β, 2300 nM; against CK1δ/ε it was 180 nM. For the same molecule, the IC50 against DYRK1A came out at 300 nM.
For `CC(C)c1cnn2c(NCc3ccc(-c4ccccn4)cc3)nc(N[C@@H](CO)[C@H](C)O)nc12` [Compound 15, Fumarate salt of (2S,3S)-2-(1,3-dihydroxybut-2-ylamino)-8-isopropyl-4-[4-(pyridin-2-yl)benzylamino]pyrazolo[1,5-a]-1,3,5-triazine], the IC50 turned out to be 42 nM on CDK1/cyclin B; 45 nM at CDK5/p25; 31 nM against CDK2/cyclin A; 60 nM against CDK9/cyclin T; 2200 nM against GSK-3α/β; 120 nM on CK1δ/ε. The molecule further registered an IC50 on DYRK1A of 530 nM.
With `CC(C)c1cnn2c(NCc3ccc(-c4ccccn4)cc3)nc(NC(CO)CO)nc12` [Compound 17, 2-(1,3-dihydroxyprop-2-ylamino)-8-isopropyl-4-[4-(pyridin-2-yl)benzylamino]pyrazolo[1,5-a]-1,3,5-triazine], the IC50 at CDK1/cyclin B worked out at 70 nM; at CDK5/p25, 53 nM; against CDK2/cyclin A, 62 nM; against CDK9/cyclin T, 68 nM; against GSK-3α/β, 4400 nM; against CK1δ/ε it was 92 nM. In addition, the concentration for half-maximal inhibition (IC50) against DYRK1A is 920 nM.
Regarding `CC(C)c1cnn2c(NCc3ccc(-c4ccccn4)cc3)nc(NC(CO)CO)nc12` [Compound 18, Fumarate salt of 2-(1,3-dihydroxyprop-2-ylamino)-8-isopropyl-4-[4-(pyridin-2-yl)benzylamino]pyrazolo[1,5-a]-1,3,5-triazine], the half-inhibitory concentration (IC50) on CDK1/cyclin B was 51 nM; at CDK5/p25 it was 64 nM; against CDK2/cyclin A, 49 nM; at CDK9/cyclin T it was 61 nM; against GSK-3α/β, 2800 nM; against CK1δ/ε it was 120 nM. Also, at DYRK1A, the midpoint of inhibition, the IC50, lay at 610 nM.
On to `CC(C)c1cnn2c(NCc3ccc(-c4ccccc4)nc3)nc(N[C@@H](CO)[C@H](C)O)nc12` [Compound 21], for which the concentration for half-maximal inhibition (IC50) at CDK5/p25 amounted to 43 nM; against GSK-3α/β it was 1200 nM; against CK1δ/ε it was 110 nM; on DYRK1A, 1200 nM.
For `CC(C)c1cnn2c(NCc3ccc(-c4ccccc4)nc3)nc(N[C@H](CO)[C@@H](C)O)nc12` [Compound 23], the 50% inhibitory concentration (IC50) against CDK5/p25 is less than 30 nM; at GSK-3α/β it was 1200 nM; against CK1δ/ε it was 130 nM; at DYRK1A it was 1300 nM.
For `CC(C)c1cnn2c(NCc3ccc(-c4ccccn4)cc3)nc(N[C@H](CO)C(C)C)nc12` [Compound 28, (S)-2-(1-hydroxy-3-methylbut-2-ylamino)-8-isopropyl-4-[4-(pyridin-2-yl)benzylamino]pyrazolo[1,5-a]-1,3,5-triazine], the IC50 at CDK5/p25 was found to be 120 nM; against GSK-3α/β it was 7000 nM; on CK1δ/ε it was 410 nM; at DYRK1A it was 580 nM.
Take `CC(C)c1cnn2c(NCc3ccc(-c4ccccn4)cc3)nc(N3CCN(CCO)CC3)nc12` [Compound 30, 2-[4-[8-isopropyl-4-[[4-(pyridin-2-yl)phenyl]methylamino]pyrazolo[1,5-a]-1,3,5-triazin-2-yl]piperazin-1-yl]ethanol]: the IC50 turned out to be 380 nM at CDK5/p25; 1400 nM in assay [1]; 2100 nM against GSK-3α/β; 560 nM on CK1δ/ε; 1400 nM against DYRK1A.
For the molecule `CCc1cnn2c(NCc3ccc(-c4ccccn4)cc3)nc(NC[C@@H](O)CO)nc12` [Compound 31, (R)-2-(1,2-dihydroxypropan-3-ylamino)-8-ethyl-4-[4-(pyridin-2-yl)benzylamino]pyrazolo[1,5-a]-1,3,5-triazine], the IC50 against CDK5/p25 was 25 nM; in assay [1] it was less than 30 nM; on GSK-3α/β, 1000 nM; at CK1δ/ε, 360 nM; against DYRK1A, 710 nM.
For `CCc1cnn2c(NCc3ccc(-c4ccccn4)cc3)nc(N[C@@H](CC)CO)nc12` [Compound 35, (S)-8-ethyl-2-(1-hydroxybut-2-ylamino)-4-[4-(pyridin-2-yl)benzylamino]pyrazolo[1,5-a]-1,3,5-triazine] the same measures were 34 nM, 50 nM, 1400 nM, 930 nM and 820 nM.
For `CCc1cnn2c(NCc3ccc(-c4ccccn4)cc3)nc(N[C@H](CC)CO)nc12` [Compound 36, (R)-8-ethyl-2-(1-hydroxybut-2-ylamino)-4-[4-(pyridin-2-yl)benzylamino]pyrazolo[1,5-a]-1,3,5-triazine] the same measures were 22 nM, 26 nM, 1600 nM, 580 nM and 1600 nM.

These data come from US8691982B2, “Pyrazolo[1,5-a]-1,3,5-triazine derivatives, preparation thereof, and therapeutic use thereof” (Centre National de la Recherche Scientifique, priority 2009, dated 2014).
